In publication PMC4769088, “Antifungal Activity and Action Mechanism of Histatin 5-Halocidin Hybrid Peptides against Candida ssp” (PLoS ONE, 2016):
Where a SMILES comes first, the peptide text is derived from it. Bridges are numbered along the chain shown (N, C = ends). Roman numbers before positions name the chains, in order.

Key:
[1] = CD spectra, secondary structure analysis; assay type: physicochemical; settings: 200 μg/ml peptide
Experimental: Circular dichroism (CD) spectra of the six peptides (Hst5, P113, HHP1, di-PH2, di-WP2 and di-18Hc) were measured with a J-715 spectropolarimeter (Jasco, Tokyo, Japan). Two hundred micrograms of each peptide was resuspended in 1 ml of 10 mM NaPB (pH 7.0) (i) without other additives, (ii) with 10% laminarin (LAM) or (iii) with 50% trifluoroethanol (TFE) (a known helix-inducing solvent). The spectra were measured at room temperature in a 1-mm-path-length quartz cell. The scanning speed was 10 nm/min (180 to 260 nm), and each spectrum was the average of five scans.
Fig 3 CD spectra of Hst5, P113, di-18Hc and hybrid peptides. This study was performed with one concentration (200 μg/ml) of each peptide in various buffers: 10 mM sodium phosphate buffer (Red line), 50% TFE in phosphate buffer (green line) and 20 mg of laminarin in phosphate buffer.

[2] = system: Candida albicans; assay type: cell-based
Experimental: (§1) The candidacidal activities of the peptides were tested by using standard microdilution plate assays, radial diffusion assays and broth dilution assay slightly modified from the procedure recommended by the National Committee for Clinical Laboratory Standards. For the candidacidal assays, C. albicans cells were grown in YPD medium and washed twice with 10 mM sodium phosphate buffer (NaPB; Na2HPO4, NaH2PO4, pH 7.4). The cells (1 x 10^6) were then mixed with different concentrations of peptides and incubated at 30°C with constant shaking for 60 min. For energy depletion experiments, cells were pre-incubated with 10 mM NaPB containing 5 mM NaN3 at 30°C for 60 min before the addition of peptides. The cell suspensions were diluted in 10 mM NaPB and aliquots of 500 cells were spread onto YPD agar plates then incubated for 24 h at 30°C to visualize the surviving colonies. Cell survival was expressed as a percentage of that for the control, and the loss of viability was calculated as [1 x (number of colonies from peptide-treated cells/number of colonies from control cells)] x 100. Candidacidal assays were performed in triplicate. For the radial diffusion assay, C. albicans cells were grown in YPD medium overnight and washed twice with 10 mM NaPB. Washed yeast-phase C. albicans cells (1 x 10^6 CFU) were trapped in thin underlay gels containing 9 mM sodium phosphate, 1 mM sodium citrate buffer, 1% (wt/vol) agarose (A6013; Sigma), and 0.3 mg of Sabouraud dextrose broth (Difco)/ml. After incubation at 37°C for 3 h, a 10 ml overlay gel of 1% agarose and 6% Sabouraud dextrose broth was poured on the underlay gel and then the plates were incubated overnight at 37°C. The clear-zone diameters were measured to the nearest 0.1 mm and graphed against the peptide concentration. Zone diameters were expressed in units (0.1 mm = 1 unit). For the broth dilution assay, the Candida strains were cultured in LYM broth for 18 h at 30°C. The numbers of yeasts were counted using a hemocytometer. […] The antifungal activities were evaluated after 24 h of incubation at 30°C by the observation of visible turbidity the wells. The MIC values were expressed as intervals (a–b), with a representing the highest tested concentration at which microbes continue to grow, and b representing the lowest concentration at which growth inhibition could be detected.
Fig 4 Killing kinetics of Hst5, P113, di-18Hc, hybrid peptides against Candida albicans. Killing kinetics of peptides against C. albicans was measured by colony count assay. Candida cells were treated with a different concentration of peptides at a determined time. […] Killing percent was calculated with the following equation: Killing % = (number of control cell—number of treated cell)/control cell × 100.

[3] = system: laminarin (β-1,3-glucan polymer), C. albicans cell wall component; test: Binding/radial diffusion assay with laminarin; assay type: cell-based; settings: peptide final 180 μg/ml, pre-incubated 2 h at 37°C, radial diffusion assay
Experimental: as §1, with “hemocytometer. Stock peptide solutions were prepared to a concentration of 320 μg/ml in distilled water, and were then serially diluted twofold, to 5 μg/ml. 100 μl aliquots of the diluted culture media containing candida cells (1 x 10^3) were dispensed into the wells of 96-well polypropylene microtiter plates (Costar 3879, Corning, NY), to which peptide solution (11 μl) was then added.” for “hemocytometer.”
Binding of hybrid peptides to the surface of C. albicans cells was examined by assessing the inhibitory effect of fungal cell wall components on the antimicrobial activity of the hybrid peptides. 20 μl of a pre-determined concentration of the peptides was added to 80 μl of each polysaccharide (0.07–40 mg/ml in 10 mM NaPB) including laminarin (β-1,3-glucan polymer; Sigma), pustulan (β-1,6-glucan polymer; Calbiochem) or mannan (mannose polymer; Sigma) and incubated for 2 h at 37°C. The inhibitory effects of the polysaccharides on the antimicrobial activity of the peptides were assessed by radial diffusion assay as described above. […]

CC(C)C[C@H](NC(=O)CNC(=O)[C@H](Cc1c[nH]cn1)NC(=O)[C@H](Cc1c[nH]cn1)NC(=O)[C@H](CC(C)C)NC(=O)[C@H](CC(C)C)NC(=O)[C@H](C)NC(=O)[C@H](CC(N)=O)NC(=O)[C@H](CC(C)C)NC(=O)[C@@H](N)Cc1c[nH]c2ccccc12)C(=O)N[C@@H](CC(N)=O)C(=O)N[C@@H](CSSC[C@H](NC(=O)[C@H](CC(N)=O)NC(=O)[C@H](CC(C)C)NC(=O)CNC(=O)[C@H](Cc1c[nH]cn1)NC(=O)[C@H](Cc1c[nH]cn1)NC(=O)[C@H](CC(C)C)NC(=O)[C@H](CC(C)C)NC(=O)[C@H](C)NC(=O)[C@H](CC(N)=O)NC(=O)[C@H](CC(C)C)NC(=O)[C@@H](N)Cc1c[nH]c2ccccc12)C(=O)N[C@@H](C)C(=O)N[C@@H](CCCCN)C(=O)NCC(=O)N[C@H](C(=O)N[C@@H](CC(C)C)C(=O)N[C@@H](C)C(N)=O)C(C)C)C(=O)N[C@@H](C)C(=O)N[C@@H](CCCCN)C(=O)NCC(=O)N[C@H](C(=O)N[C@@H](CC(C)C)C(=O)N[C@@H](C)C(N)=O)C(C)C [di-18Hc, reference compound] (I: H-WLNALLHHGLNCAKGVLA-NH2 / II: H-WLNALLHHGLNCAKGVLA-NH2; disulfide I:12-II:12 (inferred); N-terminus assumed)
Secondary structure (%) Beta ([1]; solvent 10mM NaPB (pH 7.0)): 29.2%
Secondary structure (%) Random ([1]; solvent 10mM NaPB (pH 7.0)): 61.5%
Secondary structure (%) Turn ([1]; solvent 10mM NaPB (pH 7.0)): 5.5%
Secondary structure (%) Helix ([1]; solvent 10mM NaPB (pH 7.0), room temperature, average of five scans): 3.8%
Secondary structure (%) Beta ([1]; solvent 50% TFE in 10 mM NaPB): 10.4%
Secondary structure (%) Helix ([1]; solvent 50% TFE in 10 mM NaPB): 47.0%
Secondary structure (%) Random ([1]; solvent 50% TFE in 10 mM NaPB): 28.4%
Secondary structure (%) Turn ([1]; solvent 50% TFE in 10 mM NaPB): 14.2%
reduction of cell viability ([2]; 1 μg/ml peptide, in 1 hour, colony count assay): 99%
killing kinetics (time) ([2]; membrane-attacking peptide with fast kinetics): ≤ 30 s
laminarin concentration at which antimicrobial activity was drastically decreased by pre-incubation [3]: 0.3 mg/mL
